Assay results reported in the PolyMetriX glass transition set.
± gives the standard deviation of the reports.

glass transition temperature [°C] | SMILES
260.50 | *C(=O)c1ccc2c(c1)C(=O)N(c1cccc(C(=O)c3ccc(Cc4ccc(C(=O)c5cccc(N6C(=O)c7ccc(*)cc7C6=O)c5)cc4)cc3)c1)C2=O (repeat unit)
232.00 | *C(=O)c1ccc2c(c1)C(=O)N(c1ccc(Oc3ccc(NC(=O)c4cccc(C(=O)Nc5ccc(Oc6ccc(N7C(=O)c8ccc(*)cc8C7=O)cc6)cc5)c4)cc3)cc1)C2=O (repeat unit)
249.00 | *c1ccc(Oc2ccc(Oc3ccc(N4C(=O)c5ccc(Oc6cccc7c6C(=O)N(*)C7=O)cc5C4=O)cc3)cc2)cc1 (repeat unit)
232.30 | *c1ccc(Oc2ccc(Oc3ccc(N4C(=O)c5ccc(Oc6ccc7c(c6)C(=O)N(*)C7=O)cc5C4=O)cc3C(F)(F)F)cc2)cc1 (repeat unit)
127.00 | *Oc1ccc(S(=O)(=O)c2ccc(Oc3ccc(/C=N/c4ccc(Oc5ccc(-c6ccc(Oc7ccc(/N=C/c8ccc(*)cc8)cc7)cc6)cc5)cc4)cc3)cc2)cc1 (repeat unit)
224.00 | *c1ccc(Oc2cccc(-c3cc(-c4ccccc4)cc(-c4cccc(Oc5ccc(N6C(=O)c7ccc(Oc8ccc9c(c8)C(=O)N(*)C9=O)cc7C6=O)cc5)c4)n3)c2)cc1 (repeat unit)
268.00 | *c1cccc(C(=O)Nc2ccc(Oc3ccc(Oc4ccc(NC(=O)c5cccc(N6C(=O)c7ccc(-c8cccc9c8C(=O)N(*)C9=O)cc7C6=O)c5)cc4)cc3)cc2)c1 (repeat unit)
208.00 | *c1ccc(CCc2ccccc2N2C(=O)C(=O)N(c3ccc(Oc4ccc(N5C(=O)C(=O)N(*)C5=O)cc4)cc3)C2=O)cc1 (repeat unit)
232.00 | *c1cccc(C(=O)c2ccc(Oc3ccc(N4C(=O)c5ccc(Oc6ccc7c(c6)C(=O)N(*)C7=O)cc5C4=O)cc3)cc2)c1 (repeat unit)
288.00 | *c1ccc(Sc2ccc(-c3nc4cc(-c5ccc6nc(-c7ccccc7)c(*)nc6c5)ccc4nc3-c3ccccc3)cc2)cc1 (repeat unit)
250.00 | *C(=O)Nc1ccc(Oc2ccc(Oc3ccc(N4C(=O)c5ccc(*)cc5C4=O)cc3)cc2)cc1 (repeat unit)
147.00 | *Oc1ccc(CCNC(=O)c2cccc(C(=O)NCCc3ccc(OC(=O)c4cccc(C(*)=O)c4)cc3)c2)cc1 (repeat unit)
250.00 | *C(=O)Nc1ccc(C(c2ccc(NC(=O)c3ccc4c(c3)C(=O)N(c3cccc5c(N6C(=O)c7ccc(*)cc7C6=O)cccc35)C4=O)cc2)(C(F)(F)F)C(F)(F)F)cc1 (repeat unit)
241.00 | *c1ccc(Oc2ccc(-c3ccc(Oc4ccc(-c5nc(*)nc(-c6ccccc6)n5)cc4)cc3)cc2)cc1 (repeat unit)
236.00 | *C(=O)Nc1ccc(Oc2ccccc2-c2ccccc2Oc2ccc(NC(=O)c3ccc4c(c3)C(=O)N(c3ccc(Oc5ccc(S(=O)(=O)c6ccc(Oc7ccc(N8C(=O)c9ccc(*)cc9C8=O)cc7)cc6)cc5)cc3)C4=O)cc2)cc1 (repeat unit)
123.00 | *Oc1ccc(C(=O)c2cccc(-c3cccc(C(=O)c4ccc(*)cc4)c3)c2)cc1 (repeat unit)
174.00 | *Oc1ccc(Oc2ccc(C(=O)c3ccc(C(=O)c4ccc(*)cc4)cc3)cc2)cc1-c1ccc(S(=O)(=O)O)cc1 (repeat unit)
207.00 | *Oc1ccc(C2(c3ccc(OC(=O)CCCC(*)=O)cc3)c3ccccc3-c3ccccc32)cc1 (repeat unit)
145.00 | *c1ccc(Nc2ccc(C3(c4ccc(Nc5ccc(S(*)(=O)=O)cc5)c(F)c4)c4ccccc4-c4ccccc43)cc2F)cc1 (repeat unit)
322.00 | *C(=O)c1ccc2c(c1)C(=O)N(c1ccc(C(C)(C)c3ccc(C(C)(C)c4ccc(N5C(=O)c6ccc(*)cc6C5=O)cc4)cc3)cc1)C2=O (repeat unit)

Second part, the compound before the results:

SMILES | glass transition temperature [°C]
*CC(*)(C)C(=O)OCCCCCCCOc1ccc2cc(C(=O)Oc3ccccc3)ccc2c1 (repeat unit) | 40.00
*CC(*)(Cl)C(=O)OCCCCCCOc1ccc(C(=O)Oc2ccc(OCCCC)cc2)cc1 (repeat unit) | 112.50
*CC(*)C(=O)OCCOCC1(CC)COC1 (repeat unit) | -16.00
*c1ccc(OCCN(CC)c2ccc(C(C#N)=C(C#N)C#N)cc2)c(-c2cc(-c3ccccc3)c3cc(Oc4ccc5nc(*)cc(-c6ccccc6)c5c4)ccc3n2)c1 (repeat unit) | 200.00
*CCc1ccc(CCNC(=O)CCCCCCCCCCCCCCCCC(=O)N*)cc1 (repeat unit) | 75.00
*c1ccc2c(c1)C(CCCCCC)(CCCCCC)c1cc(-c3ccc4c(c3)c3cc(*)ccc3n4-c3ccc(C)cc3)ccc1-2 (repeat unit) | 155.00
*CC#CCOC(=O)CCCCCCCCC(=O)O* (repeat unit) | -26.50
*CCCCCCN1C(=O)C(C)C(SCCOCCSC2C(=O)N(CCCCCCN3C(=O)CC(C)(SCCOCCSC4(C)CC(=O)N(*)C4=O)C3=O)C(=O)C2C)C1=O (repeat unit) | 78.00
*O[Si](C)(C)c1ccc([Si](*)(C)C)cc1 (repeat unit) | -18.00
*CCCCCCCCCOC(=O)C(O)C(O)C(=O)O* (repeat unit) | -11.00
*C/C=C/C[Si](*)(C)C (repeat unit) | -57.50
*c1cc(C(=O)OCCCCCC)cc(N2C(=O)CC(C3Cc4ccccc4C4C(=O)N(*)C(=O)C43)C2=O)c1 (repeat unit) | 187.00
*CC(*)c1ccc(C(=O)C(F)(F)F)cc1 (repeat unit) | 95.00
*Oc1ccc(C(C)(C)c2ccc(OC3(F)C(*)(F)C(F)(F)C3(F)F)cc2)cc1 (repeat unit) | 98.00
*OP(=O)(Oc1ccc(C(C)(C)c2ccc(*)cc2)cc1)OC1CCCCC1 (repeat unit) | 86.00
*Oc1ccc(C(C)(C)c2ccc(OC(=O)OCCCCCOC(*)=O)cc2)cc1 (repeat unit) | 49.50
*CCCCOCCCCOCCCCOC(=O)c1ccc(/N=C/c2cc(OCCC(C)CCCC(C)C)c(/C=N/c3ccc(C(=O)O*)cc3)cc2OCCC(C)CCCC(C)C)cc1 (repeat unit) | -4.80
*Oc1ccc(C2(c3ccc(OC(*)=S)cc3)CCC(C)CC2)cc1 (repeat unit) | 168.00
*C(=O)OCCCCOC(=O)c1ccc(N2C(=O)c3ccc(*)cc3C2=O)cc1 (repeat unit) | 100.50
*CC(O)COc1ccc(C(C)(C)c2ccc(OCC(O)COc3cccc(NC(=O)CCCCCCCCCCC(=O)Nc4cccc(O*)c4)c3)cc2)cc1 (repeat unit) | 90.00
*OC(COCCCC)COC(*)=O (repeat unit) | -22.00
*CC(*)(C)C(=O)OCC(F)(F)F (repeat unit) [Poly(2,2,2-trifluoroethyl methacrylate)] | 74.42 ± 0.8
*CC(*)c1ccc(/C(Cc2ccccc2)=N/O)cc1 (repeat unit) | 111.00

SMILES | glass transition temperature [°C]
*OC(=O)c1ccc(CCCCCCc2ccc(C(*)=O)cc2)cc1 (repeat unit) | 20.00
*CNC(=O)OCC(OC(=O)NCc1ccc(*)o1)c1ccco1 (repeat unit) | 30.00
*CC(*)c1ccc(C(=O)OC(C)C)cc1 (repeat unit) | 95.00
*O[Si](*)(C)CCCC(=O)O (repeat unit) | -29.00
*NCCCCCCNc1nc(*)nc(-c2ccccc2)n1 (repeat unit) | 95.00
*Nc1ccc(C(C)(C)c2ccc(C(C)(C)c3ccc(Nc4ccc(C(O)(c5ccccc5)c5ccc(C(O)(c6ccccc6)c6ccc(*)cc6)cc5)cc4)cc3)cc2)cc1 (repeat unit) | 177.00
*CC(*)c1ccc(C(=O)c2ccc(OC)cc2)cc1 (repeat unit) | 103.00
*CCN(*)C(=O)c1cc(F)c(F)c(F)c1 (repeat unit) | 65.00
*CC(O)COc1ccc(C2(C)CC(C)(C)c3cc(O*)ccc32)cc1 (repeat unit) | 120.00
*CC(CS(=O)(=O)CCC)O* (repeat unit) | 43.00
*CCCCCCN(CC(F)(F)C(F)(F)C(F)(F)C(F)(F)C(F)(F)C(F)(F)C(F)(F)F)C(=O)C(F)(F)C(F)(F)C(F)(F)C(=O)N(*)CC(F)(F)C(F)(F)C(F)(F)C(F)(F)C(F)(F)C(F)(F)C(F)(F)F (repeat unit) | 187.50
*CC(*)(C)C(=O)OCCCCCCC(F)(F)C(F)(F)C(F)(F)C(F)(F)C(F)(F)C(F)(F)C(F)(F)C(F)(F)C(F)(F)C(F)(F)C(F)(F)C(F)(F)F (repeat unit) | 84.00
*c1ccc(OCCCCCCCCCCCOC(=O)c2cccc(C(=O)OCCCCCCCCCCCOc3ccc(-c4nnc(*)s4)cc3)c2)cc1 (repeat unit) | 68.00
*CCCCCCCCCCOc1ccc(/C=C2\CCC/C(=C\c3ccc(O*)c(OC)c3)C2=O)cc1OC (repeat unit) | 60.00
*CCC1C(=O)N(CCCCCC)C(=O)C1* (repeat unit) | 41.50
*CC(*)C(=O)OCCCn1c2ccccc2c2ccccc21 (repeat unit) | 83.00
*O[Si](*)(C)CCCCCC (repeat unit) | -110.8
*Nc1ccc(Cc2ccc(NC(=O)c3cc(C(*)=O)cc(N4C(=O)C5CC=CCC5C4=O)c3)cc2)cc1 (repeat unit) | 286.00
*CCC1C(=O)N(CCCCCCCCCCCCCCCCCC)C(=O)C1* (repeat unit) | 67.10
*c1ccc2c(c1)C(=O)N(c1cc(N3C(=O)c4ccc(C(*)(C(F)(F)F)C(F)(F)F)cc4C3=O)cc(C(F)(F)F)c1)C2=O (repeat unit) | 290.50 ± 9.2
*CCOC(=O)c1ccccc1C(=O)O* (repeat unit) [Poly(ethylene phthalate)] | 60.17 ± 51
*CC(*)c1ccc(C(=O)c2ccccc2)cc1 (repeat unit) | 98.00
